{"source": "patent US20260216174A1", "about": "“TREATMENT OF ER+ BREAST CANCER COMPRISING HOMOLOGOUS RECOMBINATION DEFICIENCY USING PARG INHIBITOR” (IDEAYA BIOSCIENCES, INC., priority 2023, published 2026)", "key": {"[1]": {"system": "HBCx-22 tumor", "experiment": "Patient-derived xenograft (PDX) study with HBCx-22", "type": "in vivo, Athymic Nude-Foxn1^nu mice", "conditions": "HBCx-22 PDX; for Regressions (%) / TGI (%) D42: Day 42", "method": "Female Athymic Nude-Foxn1^nu mice with an established growing HBCx-22 tumor between 108 and 288 mm^3 were randomized into 4 treatment groups of 10 mice each, according to the groups listed in Table 5A, tumor-bearing mice receive estrogen diluted in drinking water (β-estradiol, 8.5 mg/l), from the date of tumor implant to the end of the study. In Table 5A, the abbreviation “p.o.” refers to oral administration, the abbreviation “QD” refers to administration once a day, and the abbreviation “BID” refers to administration twice a day.\nTumors were measured and mice were weighed twice per week during the experimental period. The tumor volume (mm^3) was estimated using the formula: tumor volume (TV)=a×b2/2, where “a” and “b” were the long and the short diameter of a tumor, respectively. The TVs were used to calculate tumor growth inhibition (TGI, an indicator of antitumor activity) using the formula TGI %: (1−{T/T0/Ct/C0}/1−{C0/Ct})×100 where Tt=median tumor volume of treated at time t, T0=median tumor volume of treated at time 0, Ct=median tumor volume of control at time t and C0=median tumor volume of control at time 0. […] Tumor regression represents tumor volume less than the initial tumor volume on D0.\nFemale Athymic Nude-Foxn1^nu mice with an established growing HBCx-22 tumor between 108 and 288 mm^3 were randomized into 5 treatment groups of 8 mice each, according to the groups listed in Table 6A, tumor-bearing mice receive estrogen diluted in drinking water (β-estradiol, 8.5 mg/l), from the date of tumor implant to the end of the study. In Table 6A, the abbreviation “p.o.” refers to oral administration, the abbreviation “QD” refers to administration once a day, and the abbreviation “BID” refers to administration twice a day.\nTumors were measured and mice were weighed twice per week during the experimental period. The tumor volume (mm^3) was estimated using the formula: tumor volume (TV)=a×b2/2, where “a” and “b” were the long and the short diameter of a tumor, respectively. The TVs were used to calculate tumor growth inhibition (TGI, an indicator of antitumor activity) using the formula TGI %: (1−{T/T0/Ct/C0}/1−{C0/Ct})×100 where Tt=median tumor volume of treated at time t, T0=median tumor volume of treated at time 0, Ct=median tumor volume of control at time t and C0=median tumor volume of control at time 0. […] Robust and statistically significant tumor growth inhibition was observed starting at a dose of 30 mpk with 4/8 as shown in Table 6B. Tumor regression represents tumor volume less than the initial tumor volume at DO."}, "[2]": {"system": "HCC1428 tumors", "experiment": "Cell line derived xenograft (CDX) study with HCC1428 tumors", "type": "in vivo, BALB/c nude mice", "method": "For this xenograft, supplemental estradiol benzoate injections (40 μg/20 μl/mouse) are administered subcutaneously twice a week to BALB/c nude mice, starting one week prior to cell implantation and continuing through to the end of study. After implantation, HCC1428 tumor were allocated to treatment arms once a median tumor volume of about 181 mm^3 was reached. In Table 3A the abbreviation “p.o.” refers to oral administration and the abbreviation “QD×28” refers to administration once a day for 28 days.\nTumors were measured and mice were weighed twice a week during the experimental period. The tumor volume (mm3) was estimated using the formula: TV=a×b2/2, where “a” and “b” were the long and the short diameter of a tumor, respectively. The Tumor volumes were used to calculate tumor growth inhibition (TGI, an indicator of antitumor activity) using the formula: TGI %: (1−{T/T0/Ct/C0}/1−{C0/Ct})×100 where Tt=median tumor volume of treated at time t, T0=median tumor volume of treated at time 0, Ct=median tumor volume of control at time t and C0=median tumor volume of control at time 0.\nFor this xenograft, supplemental estradiol benzoate injections (40 μg/20 μl/mouse) are administered subcutaneously twice a week to BALB/c nude mice, starting one week prior to cell implantation and continuing through to the end of study. After implantation, HCC1428 tumor were allocated to treatment arms once a median tumor volume of about 181 mm^3 was reached. In Table 4A the abbreviation “p.o.” refers to oral administration and the abbreviation “QD×28” refers to administration once a day for 28 days.\nTumors were measured and mice were weighed twice a week during the experimental period. The tumor volume (mm^3) was estimated using the formula: TV=a×b2/2, where “a” and “b” were the long and the short diameter of a tumor, respectively. The Tumor volumes were used to calculate tumor growth inhibition (TGI, an indicator of antitumor activity) using the formula: TGI %: (1−{T/T0/Ct/C0}/1−{C0/Ct})×100 where Tt=median tumor volume of treated at time t, T0=median tumor volume of treated at time 0, Ct=median tumor volume of control at time t and C0=median tumor volume of control at time 0. […] At 100 mg/kg QD the mean tumor volume achieved was 116 mm3, on Day 71. The tumor growth inhibition (TGI) of these treatments compared with vehicle group on Day 28 or 71 of the treatment is summarized in Table 4B (See FIG. 3)."}, "[3]": {"conditions": "Compound A study, 30 mg/kg QD p.o."}, "[4]": {"conditions": "Compound A study, 100 mg/kg QD p.o."}, "[5]": {"conditions": "30 mg/kg p.o. QD × 28, Day 28, vs vehicle"}}}
{"smiles": "C[C@H]1CN(c2cc(S(=O)(=O)NC3(C)CC3)cc3c2cnn3-c2nnc(C(F)F)s2)C[C@H](C)N1", "note": "[Compound A, 1-(5-(difluoromethyl)-1,3,4-thiadiazol-2-yl)-4-((3S,5S)-3,5-dimethylpiperazin-1-yl)-N-(1-methylcyclopropyl)-1H-indazole-6-sulfonamide]", "values": [{"measurement": "Regressions (%)", "setting": "[1]; 3 mg/kg QD p.o.", "value": 0, "unit": "%"}, {"measurement": "TGI (%) D42", "setting": "[1]; 3 mg/kg QD p.o.", "value": 0.1, "unit": "%"}, {"measurement": "Regressions (%)", "setting": "[1]; 10 mg/kg QD p.o.", "value": 0, "unit": "%"}, {"measurement": "TGI (%) D42", "setting": "[1]; 10 mg/kg QD p.o.", "value": 31.8, "unit": "%"}, {"measurement": "Regressions (%)", "setting": "[1]; [3]", "value": 50, "unit": "%"}, {"measurement": "TGI (%) D42", "setting": "[1]; [3]", "value": 83.4, "unit": "%"}, {"measurement": "Regressions (%)", "setting": "[1]; [4]", "value": 62, "unit": "%"}, {"measurement": "TGI (%) D42", "setting": "[1]; [4]", "value": 108.5, "unit": "%"}, {"measurement": "tumor regression (mice)", "setting": "[1]; Compound A study, 30 mpk", "value": "4/8"}, {"measurement": "TGI (%) D28 or 71", "setting": "[2]; 3 mg/kg p.o. QD × 28, Day 28, vs vehicle", "value": 23, "unit": "%"}, {"measurement": "TGI (%) D28 or 71", "setting": "[2]; [5]", "value": 54, "unit": "%"}, {"measurement": "TGI (%) D28 or 71", "setting": "[2]; 100 mg/kg p.o. QD × 72, Day 71, vs vehicle", "value": 103, "unit": "%"}, {"measurement": "mean tumor volume", "setting": "[2]; Compound A study, 3 mg/kg QD, Day 28", "value": 836, "unit": "mm^3"}, {"measurement": "mean tumor volume", "setting": "[2]; Compound A study, 30 mg/kg QD, Day 28", "value": 570, "unit": "mm^3"}, {"measurement": "mean tumor volume", "setting": "[2]; Compound A study, 100 mg/kg QD, Day 71", "value": 116, "unit": "mm3"}]}
{"smiles": "CC(C)C(=O)N1CCN(c2cc(S(=O)(=O)NC3(C#N)CC3)cc3c2cnn3-c2nnc(C(F)F)s2)C[C@H]1C", "note": "[Compound B]", "values": [{"measurement": "Regressions (%)", "setting": "[1]; 30 mg/kg QD p.o.", "value": 10, "unit": "%"}, {"measurement": "TGI (%) D42", "setting": "[1]; 30 mg/kg QD p.o.", "value": 58.6, "unit": "%"}, {"measurement": "partial regressions (mice)", "setting": "[1]; 30 mg/kg once daily", "value": "1/10"}, {"measurement": "tumor stabilization", "setting": "[1]; 30 mg/kg once daily", "value": "tumor stabilization for all mice"}, {"measurement": "TGI (%) D42", "setting": "[1]; 100 mg/kg BID p.o. (200 mg/kg/day)", "value": 110.4, "unit": "%"}, {"measurement": "Regressions (%)", "setting": "[1]; 100 mg/kg BID p.o.", "value": 60, "unit": "%"}, {"measurement": "Regressions (%)", "setting": "[1]; 100 mg/kg QD p.o.", "value": 30, "unit": "%"}, {"measurement": "TGI (%) D42", "setting": "[1]; 100 mg/kg QD p.o.", "value": 97.3, "unit": "%"}, {"measurement": "partial tumor regression (mice)", "setting": "[1]; 100 mg/kg once daily", "value": "3/10"}, {"measurement": "partial tumor regression (mice)", "setting": "[1]; 100 mg/kg twice daily (200 mg/kg/day)", "value": "6/10"}, {"measurement": "TGI (%) D28", "setting": "[2]; [5]", "value": 81.7, "unit": "%"}, {"measurement": "TGI (%) D28", "setting": "[2]; 100 mg/kg p.o. QD × 28, Day 28, vs vehicle", "value": 89.0, "unit": "%"}, {"measurement": "TGI (%) D28", "setting": "[2]; 300 mg/kg p.o. QD × 28, Day 28, vs vehicle", "value": 94.6, "unit": "%"}, {"measurement": "mean tumor volume", "setting": "[2]; Compound B study, 30 mg/kg QD, Day 28", "value": 165, "unit": "mm^3"}, {"measurement": "mean tumor volume", "setting": "[2]; Compound B study, 100 mg/kg QD, Day 28", "value": 103, "unit": "mm^3"}, {"measurement": "mean tumor volume", "setting": "[2]; Compound B study, 300 mg/kg QD, Day 28", "value": 50, "unit": "mm^3"}]}
